Reference: PubChem BioAssay (NCI)
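Assay format: 96-well plates, 48-hour exposure. GI50: concentration for 50% inhibition of growth. The concentration for full growth arrest is given as TGI.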

Legend:
Test in all cases: DTP human tumour cell line panel, 48 h
MALME-3M melanoma = tested on: MALME-3M melanoma
NCI/ADR-RES ovarian = tested on: NCI/ADR-RES ovarian
MDA-MB-435 = tested on: MDA-MB-435
HCT-15 colon = tested on: HCT-15 colon
HS 578T breast = tested on: HS 578T breast
HT29 colon = tested on: HT29 colon
OVCAR-4 ovarian = tested on: OVCAR-4 ovarian
UACC-257 melanoma = tested on: UACC-257 melanoma
BT-549 breast = tested on: BT-549 breast
OVCAR-8 ovarian = tested on: OVCAR-8 ovarian
SK-MEL-5 melanoma = tested on: SK-MEL-5 melanoma
UACC-62 melanoma = tested on: UACC-62 melanoma
DU-145 prostate = tested on: DU-145 prostate
NCI-H23 lung = tested on: NCI-H23 lung
786-0 renal = tested on: 786-0 renal
HL-60(TB) leukemia = tested on: HL-60(TB) leukemia
A549 NSCLC = tested on: A549 NSCLC
A498 renal = tested on: A498 renal
T-47D breast = tested on: T-47D breast
SW-620 colon = tested on: SW-620 colon
EKVX NSCLC = tested on: EKVX NSCLC
HCT-116 colon = tested on: HCT-116 colon
SF-539 CNS = tested on: SF-539 CNS
RXF 393 renal = tested on: RXF 393 renal
NCI-H226 lung = tested on: NCI-H226 lung
KM12 colon = tested on: KM12 colon
HOP-62 NSCLC = tested on: HOP-62 NSCLC
UO-31 renal = tested on: UO-31 renal
MOLT-4 leukemia = tested on: MOLT-4 leukemia
PC-3 prostate = tested on: PC-3 prostate
TK-10 renal = tested on: TK-10 renal
MCF7 breast = tested on: MCF7 breast
SN12C renal = tested on: SN12C renal
LOX IMVI melanoma = tested on: LOX IMVI melanoma
U251 CNS = tested on: U251 CNS
MDA-MB-231 breast = tested on: MDA-MB-231 breast
SF-268 CNS = tested on: SF-268 CNS
NCI-H460 lung = tested on: NCI-H460 lung
COLO 205 colon = tested on: COLO 205 colon
M14 melanoma = tested on: M14 melanoma
SNB-19 CNS = tested on: SNB-19 CNS
K-562 leukemia = tested on: K-562 leukemia
RPMI-8226 leukemia = tested on: RPMI-8226 leukemia
SF-295 CNS = tested on: SF-295 CNS
SNB-75 CNS = tested on: SNB-75 CNS
SK-MEL-28 melanoma = tested on: SK-MEL-28 melanoma
CAKI-1 renal = tested on: CAKI-1 renal
OVCAR-5 ovarian = tested on: OVCAR-5 ovarian
ACHN renal = tested on: ACHN renal
IGROV1 ovarian = tested on: IGROV1 ovarian
HCC-2998 colon = tested on: HCC-2998 colon
SK-OV-3 ovarian = tested on: SK-OV-3 ovarian
HOP-92 NSCLC = tested on: HOP-92 NSCLC
SK-MEL-2 melanoma = tested on: SK-MEL-2 melanoma
OVCAR-3 ovarian = tested on: OVCAR-3 ovarian
CCRF-CEM leukemia = tested on: CCRF-CEM leukemia
NCI-H522 lung = tested on: NCI-H522 lung
SR leukemia = tested on: SR leukemia

CCCN(CCC)c1ccc(C=O)c(Cl)c1
GI50 (MALME-3M melanoma): 23.4 µM
TGI (MALME-3M melanoma): > 69 µM
GI50 (NCI/ADR-RES ovarian): 29 µM
TGI (NCI/ADR-RES ovarian): > 100 µM
GI50 (MDA-MB-435): 25.2 µM
TGI (MDA-MB-435): > 87.8 µM
GI50 (HCT-15 colon): 24 µM
TGI (HCT-15 colon): > 100 µM
GI50 (HS 578T breast): 22.9 µM
TGI (HS 578T breast): > 96.8 µM
GI50 (HT29 colon): 18.4 µM
TGI (HT29 colon): 50.2 µM
GI50 (OVCAR-4 ovarian): 0.78 µM
TGI (OVCAR-4 ovarian): 14.2 µM
GI50 (UACC-257 melanoma): 0.273 µM
TGI (UACC-257 melanoma): 0.979 µM
GI50 (BT-549 breast): 24 µM
TGI (BT-549 breast): > 80.4 µM
GI50 (OVCAR-8 ovarian): 28.4 µM
TGI (OVCAR-8 ovarian): > 100 µM
GI50 (SK-MEL-5 melanoma): 14.8 µM
TGI (SK-MEL-5 melanoma): 28.6 µM
GI50 (UACC-62 melanoma): 0.317 µM
TGI (UACC-62 melanoma): 1.81 µM
GI50 (DU-145 prostate): 48 µM
TGI (DU-145 prostate): > 100 µM
GI50 (NCI-H23 lung): 25.6 µM
TGI (NCI-H23 lung): > 100 µM
GI50 (786-0 renal): 20 µM
TGI (786-0 renal): 53 µM
GI50 (HL-60(TB) leukemia): 27.8 µM
TGI (HL-60(TB) leukemia): 76.1 µM
GI50 (A549 NSCLC): 7.66 µM
TGI (A549 NSCLC): > 100 µM
GI50 (A498 renal): 0.141 µM
TGI (A498 renal): 0.289 µM
GI50 (T-47D breast): 0.375 µM
TGI (T-47D breast): 5.1 µM
GI50 (SW-620 colon): 20.9 µM
TGI (SW-620 colon): > 100 µM
GI50 (EKVX NSCLC): 21.4 µM
TGI (EKVX NSCLC): > 76.6 µM
GI50 (HCT-116 colon): 2.2 µM
TGI (HCT-116 colon): 19 µM
GI50 (SF-539 CNS): 23.8 µM
TGI (SF-539 CNS): > 65 µM
GI50 (RXF 393 renal): 14.2 µM
TGI (RXF 393 renal): 33.6 µM
GI50 (NCI-H226 lung): 0.152 µM
TGI (NCI-H226 lung): 0.322 µM
GI50 (KM12 colon): 28.6 µM
TGI (KM12 colon): > 83.6 µM
GI50 (HOP-62 NSCLC): 13.3 µM
TGI (HOP-62 NSCLC): 64.9 µM
GI50 (UO-31 renal): 19.7 µM
TGI (UO-31 renal): > 83.8 µM
GI50 (MOLT-4 leukemia): 29.6 µM
TGI (MOLT-4 leukemia): 97.1 µM
GI50 (PC-3 prostate): 29.1 µM
TGI (PC-3 prostate): > 100 µM
GI50 (TK-10 renal): 0.262 µM
TGI (TK-10 renal): 1.17 µM
GI50 (MCF7 breast): 1.8 µM
TGI (MCF7 breast): 29.4 µM
GI50 (SN12C renal): 28.1 µM
TGI (SN12C renal): > 100 µM
GI50 (LOX IMVI melanoma): 23.4 µM
TGI (LOX IMVI melanoma): > 63.7 µM
GI50 (U251 CNS): 6.6 µM
TGI (U251 CNS): 29.9 µM
GI50 (MDA-MB-231 breast): 18.9 µM
TGI (MDA-MB-231 breast): 43.7 µM
GI50 (SF-268 CNS): 33.9 µM
TGI (SF-268 CNS): > 91.5 µM
GI50 (NCI-H460 lung): 2.19 µM
TGI (NCI-H460 lung): 39.3 µM
GI50 (COLO 205 colon): 4.2 µM
TGI (COLO 205 colon): 17 µM
GI50 (M14 melanoma): 26 µM
TGI (M14 melanoma): > 100 µM
GI50 (SNB-19 CNS): 25.8 µM
TGI (SNB-19 CNS): > 100 µM
GI50 (K-562 leukemia): 26.4 µM
TGI (K-562 leukemia): > 100 µM
GI50 (RPMI-8226 leukemia): 40.1 µM
TGI (RPMI-8226 leukemia): > 100 µM
GI50 (SF-295 CNS): 3.87 µM
TGI (SF-295 CNS): 29.2 µM
GI50 (SNB-75 CNS): 16.5 µM
TGI (SNB-75 CNS): 55.8 µM
GI50 (SK-MEL-28 melanoma): 20 µM
TGI (SK-MEL-28 melanoma): 68.9 µM
GI50 (CAKI-1 renal): 15.1 µM
TGI (CAKI-1 renal): > 66.9 µM
GI50 (OVCAR-5 ovarian): 0.432 µM
TGI (OVCAR-5 ovarian): 2.33 µM
GI50 (ACHN renal): 31.7 µM
TGI (ACHN renal): > 100 µM
GI50 (IGROV1 ovarian): 0.558 µM
TGI (IGROV1 ovarian): 7.18 µM
GI50 (HCC-2998 colon): 19.4 µM
TGI (HCC-2998 colon): > 100 µM
GI50 (SK-OV-3 ovarian): 24.4 µM
TGI (SK-OV-3 ovarian): > 100 µM
GI50 (HOP-92 NSCLC): 9.64 µM
TGI (HOP-92 NSCLC): 36 µM
GI50 (SK-MEL-2 melanoma): 15 µM
TGI (SK-MEL-2 melanoma): 44.3 µM
GI50 (OVCAR-3 ovarian): 1.67 µM
TGI (OVCAR-3 ovarian): 6.7 µM
GI50 (CCRF-CEM leukemia): 35.5 µM
TGI (CCRF-CEM leukemia): > 100 µM
GI50 (NCI-H522 lung): 25.2 µM
TGI (NCI-H522 lung): 82.2 µM

Nc1nc2ccc(Sc3ccc4nc(N)[nH]c(=O)c4c3)cc2c(=O)[nH]1
TGI (MALME-3M melanoma): > 100 µM
TGI (NCI/ADR-RES ovarian): > 100 µM
TGI (MDA-MB-435): > 100 µM
TGI (HCT-15 colon): > 100 µM
TGI (HS 578T breast): > 100 µM
TGI (HT29 colon): > 100 µM
TGI (OVCAR-4 ovarian): > 100 µM
TGI (UACC-257 melanoma): > 100 µM
TGI (BT-549 breast): > 100 µM
TGI (OVCAR-8 ovarian): > 100 µM
TGI (SK-MEL-5 melanoma): > 100 µM
TGI (UACC-62 melanoma): > 100 µM
TGI (DU-145 prostate): > 100 µM
TGI (NCI-H23 lung): > 100 µM
TGI (786-0 renal): > 100 µM
TGI (HL-60(TB) leukemia): > 100 µM
TGI (A549 NSCLC): > 100 µM
TGI (T-47D breast): > 100 µM
TGI (SW-620 colon): > 100 µM
TGI (EKVX NSCLC): > 100 µM
TGI (HCT-116 colon): > 100 µM
TGI (SF-539 CNS): > 100 µM
TGI (RXF 393 renal): > 100 µM
TGI (NCI-H226 lung): 81.9 µM
TGI (KM12 colon): > 100 µM
TGI (UO-31 renal): > 100 µM
TGI (MOLT-4 leukemia): > 100 µM
TGI (PC-3 prostate): > 100 µM
TGI (TK-10 renal): > 100 µM
TGI (MCF7 breast): > 100 µM
TGI (SN12C renal): > 100 µM
TGI (U251 CNS): > 100 µM
TGI (MDA-MB-231 breast): > 100 µM
TGI (SF-268 CNS): > 100 µM
TGI (NCI-H460 lung): > 100 µM
TGI (COLO 205 colon): > 100 µM
TGI (M14 melanoma): > 100 µM
TGI (SNB-19 CNS): > 100 µM
TGI (SR leukemia): > 100 µM
TGI (K-562 leukemia): > 100 µM
TGI (RPMI-8226 leukemia): > 100 µM
TGI (SF-295 CNS): > 100 µM
TGI (SNB-75 CNS): > 100 µM
TGI (SK-MEL-28 melanoma): > 100 µM
TGI (CAKI-1 renal): > 100 µM
TGI (OVCAR-5 ovarian): > 100 µM
TGI (ACHN renal): > 100 µM
TGI (IGROV1 ovarian): > 100 µM
TGI (HCC-2998 colon): > 100 µM
TGI (SK-OV-3 ovarian): > 100 µM
TGI (HOP-92 NSCLC): > 100 µM
TGI (SK-MEL-2 melanoma): > 100 µM
TGI (OVCAR-3 ovarian): > 100 µM
TGI (CCRF-CEM leukemia): > 100 µM
TGI (NCI-H522 lung): > 100 µM
